Test results as given in US9459254B2, “Method for determining sensitivity to an anticancer agent” (KEIO UNIVERSITY, priority 2009, dated 2016).

Columns and labels:
DLD-1 cells [1] = assay: SELDI-TOF MS intracellular protein expression after drug exposure, DLD-1; format: cell-based, human
Description: (§1) The 5-FU+SN-38 combination concentration was adjusted to the following four levels: 2 μM+10 nM, 2 μM+100 nM, 100 μM+10 nM, and 100 μM+100 nM, the 5-FU concentration (exposure to single agent) was adjusted to 2 μM and 100 μM, and the SN-38 concentration (exposure to single agent) was adjusted to 10 nM and 100 nM. In addition, the exposure test was conducted at a drug-free concentration (control). That is, nine concentrations in total were employed. Drug exposure time was adjusted to the following four periods of time: 0 hour (just before exposure), 4 hours, 24 hours, and 48 hours. After completion of exposure, cell count was performed, and intracellular proteins were extracted.
(§2) The medium was removed from the dish and washed thrice with ice-cooled PBS. The cells on the dish was collected by scraping with a rubber policeman. The thus-obtained cell suspension was transferred to a 1.5-mL microtube. The cell suspension was centrifuged at 4° C. and 1,200×g for 10 minutes, and the cells were recovered. After removal of the supernatant, a cell lysis buffer (9 mol/L urea, 2% CHAPS, 1 mM DTT, protease-inhibitor cocktail (Sigma)) was added in a volume of 200 μL with respect to 10,000,000 cells. The liquid was subjected to untrasonic treatment under cooling with ice. The thus-treated product was centrifuged at 4° C. and 16,000×g for 20 minutes, and the supernatant was quickly frozen with liquid nitrogen. The frozen product was stored at −80° C. before analysis. An aliquot of the supernatant was subjected to protein quantification (DC Protein Assay Kit, Bio-Rad).
(§3) The protein sample was mixed with a cell lysis buffer (excluding protease inhibitor), to thereby adjust the protein concentration to 2.5 mg/mL. The liquid was further mixed with a dilution/washing buffer (pH: 4.5, 50 mM sodium acetate buffer) (hereinafter referred to simply as “buffer”), to a protein concentration of 0.5 mg/mL. The thus-prepared sample (100 μL) was applied to spots of a cation-exchange ProteinChip array (CM10, Bio-Rad) which had been conditioned in advance with the same buffer. […]

DLD-1 cells [2] = assay: MTS assay cell viability after drug exposure, DLD-1
Description: (§4) Two colorectal cancer lines (HCT116 and DLD-1, obtained from ECACC) were exposed to a drug, and 48 hours and 72 hours after drug exposure, cell viability was determined by means of an MTS assay (CellTiter96™ AQueous One Solution Cell Proliferation Assay, Promega). Drug exposure conditions were as follows. 5-FU (single agent) was used at the following 11 concentrations: control (0 μM), 0.001 μM, 0.01 μM, 0.1 μM, 1 μM, 3 μM, 10 μM, 30 μM, 100 μM, 1,000 μM, and 10,000 μM. SN-38 (single agent) was used at the following 11 concentrations; control (0 nM), 0.001 nM, 0.01 nM, 0.1 nM, 0.3 nM, 1 nM, 3 nM, 10 nM, 30 nM, 100 nM, and 1,000 nM. In the case of 5-FU/SN-38 combination, 5-FU was used at 2 μM, 10 μM, 30 μM, and 100 μM (4 concentrations), and SN-38 was used at 0.001 nM, 0.01 nM, 0.1 nM, 0.3 nM, 1 nM, 3 nM, 10 nM, 30 nM, 100 nM, and 1,000 nM (10 concentrations); i.e., 40 concentrations were employed. […]
(§5) Sensitivity analysis was performed from viability data calculated from MTS assay results. The presence or absence of combined effect was determined through comparison of viability obtained by exposure to a combination with that obtained by exposure to a single agent at the same concentration as employed at the exposure to the combination.

HCT116 cells [3] = assay: MTS assay cell viability after drug exposure, HCT116
Description: as §4, §5

HCT116 cells [4] = assay: SELDI-TOF MS intracellular protein expression after drug exposure, HCT116; format: cell-based, human
Description: as §1, §2, §3

[5] = compared with CPT-11; cited from earlier work

| SMILES | intracellular protein A level after drug exposure (DLD-1 cells [1]) | cell viability (DLD-1 cells [2]; DLD-1, 100 μM 5-FU, 48 hours) | cell viability (HCT116 cells [3]; HCT116, 100 μM 5-FU, 48 hours) | intracellular protein A level (m/z 16,450 to 16,620) after drug exposure (HCT116 cells [4]) | anti-tumor activity relative to that of CPT-11 [5] | intracellular protein B level after drug exposure (DLD-1 cells [1]) | cell viability (DLD-1 cells [2]; DLD-1, 100 nM SN-38, 72 hours) | cell viability (HCT116 cells [3]; HCT116, 100 nM SN-38, 72 hours) | intracellular protein B level (m/z 22,080 to 22,310) after drug exposure (HCT116 cells [4]) |
| --- | --- | --- | --- | --- | --- | --- | --- | --- | --- |
| O=c1[nH]cc(F)c(=O)[nH]1 [5-FU, Fluorouracil] | no significant difference | about 49% | about 24% | protein level increase | – | – | – | – | – |
| CCc1c2c(nc3ccc(O)cc13)-c1cc3c(c(=O)n1C2)COC(=O)[C@]3(O)CC [SN-38, 7-ethyl-10-hydroxycamptothecin] | no significant difference | – | – | protein level increase | about 100 times to some thousand times | no significant difference | about 76% | about 24% | protein level increase |
